Test results reported in article PMC11357992, “Non-invasive mapping of systemic neutrophil dynamics upon cardiovascular injury” (Nature Cardiovascular Research, 2023).
Where no end group is shown, it is not given here. carboxyfluorescein = N-terminal fluorescence label (CF)

Columns and labels:
[1] = system: human neutrophils; experiment: Migration of human neutrophils toward IL-8 (Boyden chamber); assay type: cell-based; settings: 50 µl hNPPFCs, 1 h, 37 °C; 100 ng ml^−1 IL-8
Method: A total of 1 × 10^6 isolated human neutrophils were incubated with or without 50 µl ^hNPPFCs for 1 h at 37 °C in 1 ml DMEM. After washing with DMEM, 1 × 10^5 of these cells were placed in a Boyden chamber containing 200 µl DMEM. The lower part of the chamber contained 100 ng ml^−1 IL-8 in 1 ml DMEM. After 1 h in an incubator, the flow through was collected, and the number of neutrophils was counted by flow cytometry. Murine neutrophils were isolated from Matrigel–LPS plugs and stained for Ly6G. Afterward, cells were washed twice, and the number of neutrophils was determined by flow cytometry.

[2] = system: CD177+ and CD177- neutrophils; experiment: hNPPFC uptake by CD177+ and CD177- neutrophil subpopulations, flow cytometry; assay type: cell-based, human; settings: latter = CD177+
Method: Fig. 5 Specific targeting of human neutrophils by ^hNPPFCs. a, Uptake of ^hNPPFCs (red) or ^ConPFCs (gray) by human lymphocytes, monocytes or neutrophils over time as determined by flow cytometry. **P < 0.01. b, For MRI analysis, human immune cells were incubated with ^hNPPFCs (top row) or ^ConPFCs (bottom row). After several washing steps, cells were purified by density gradient centrifugation and analyzed by MRI. First column, ^1H MR image of the centrifugation tube with the cell layer (arrow) on top of the dark Percoll layer; second column, ^19F MR image of the same area; third column, merge of both datasets. Quantification of the ^19F data is shown on the right. c, hNP was conjugated to the pH-sensitive dye pHrodo, incubated with neutrophils at 4 °C (blue) and 37 °C (red) and analyzed by flow cytometry. d, Confocal microscopy of neutrophils incubated with ^hNPPFCs (top) or ^ConPFCs (bottom). Fluorescence signals of PFCs (rhodamine; Rho) as well as ligands (carboxyfluorescein; CF) were recorded, and nuclei were counterstained with 4′,6-diamidino-2-phenylindole (DAPI) (blue). […] At distinct time points, uptake of ^hNPPFCs was determined by flow cytometry. f, Human blood immune cells were incubated with ^hNPPFCs followed by staining for CD177 and flow cytometry. […]

## hNPPFCs: PEGylated rhodamine-labeled perfluorocarbon nanoemulsion coupled with human neutrophil-specific peptide hNP (carboxyfluorescein-DLVTSKLQVGGGC; also: C-terminal Cys coupled via maleimide-PEG2000-DSPE to rhodamine-labelled perfluorocarbon nanoemulsion)
[1]
  migration of human neutrophils toward IL-8: no evidence for any changes in their chemotactic properties
[2]
  labeling of CD177− versus CD177+ neutrophils: only the latter population could be labeled
